Assay results: patent US20150086622A1, “GROWTH ENHANCEMENT OF INFANTS” (NUTRINIA LTD., priority 2012, published 2015)
“Also recorded” adds a separate entry of the source.

How the values were obtained:
low birth weight infants [1] = assay: Phase I open label single group clinical study of insulin enriched formula: growth in weight, length, head circumference; assay type: in vivo, human; conditions: at 6 months; CDC growth tables
Method: The effect of insulin enriched formula on low birth weight full term infant was examined. Inclusion criteria for participating in the study included: healthy infants 34-42 weeks gestation (“term born infants”); birth weight above 1,650 g, typically between 1750 gram and 2500 gram; no major congenital malformation or any other illness sign; chronological age under 240 hours; mother is not willing to breastfeed the baby during the study period and signed an informed consent. Infant with a high index of suspect for infection before enrolment, maternal diabetes, and medications given until day 1 of the study were excluded. Observed results regarding weight, length, and head circumference were compared to expected values which were obtained from the CDC growth reference tables (ibid) according to the infants' gender, gestational age and percentile of birth weight (BW). Interpolation or extrapolation was used to determine the percentile and the expected gain of each infant. The expected values are specific to the percentile measure at birth. The percentile of each BW was evaluated according to the gender, gestational age and multiplicity (singleton or twin) using published tables for Israel (Dolberg S. et al., IMAJ, 7, 2005, 311-314). No such data were available with respect to the percentiles of length and of head circumference. It was therefore assumed that the BW percentile of each infant is applicable to each of the other two growth measures. […] The infants' gender, family origin, gestational age at birth, maternal medications, maternal age, chronic diseases in the family and the infant's condition upon enrollment were recorded. […] During the study, the infant's weight, length, head circumference, glucose blood levels, blood count, blood fat, blood chemistry, blood amino acids, insulin antibodies, and serum levels were recorder, as well as food consumption, vomiting, regurgitation and stools frequency were measured and assessed. The possible effect of the insulin enriched formula on growth was evaluated with respect to gain in weight, length, and head circumference. […]

low birth weight infants [2] = assay: Clinical studies: safety / side effects of insulin enriched formula; assay type: in vivo, human
Method: Phase I, multi center, non-randomized, open label, single group study to assess the safety of insulin enriched formula on low birth weight infants was conducted in Rabin Medical Center and Laniado Hospital, Israel. The possible effect of the insulin enriched formula on growth of low birth weight infants, born on term (at least 34 weeks of gestation) was also examined in this study. Parents of eligible infants, who met the study criteria, were invited to participate in the study following signing on Informed Consent Form (ICF). From study day 1, the infants received the insulin enriched infant formula ([…], Israel). They were fed with the formula for the first 4 months without the addition of complementary feed. The infants' gender, family origin, gestational age at birth, maternal medications, maternal age, chronic diseases in the family and the infant's condition upon enrollment were recorded. […] At study day 1 and 2, and at 1, 4, 8, 12, 16 and 24 weeks the parents of the infant were asked to come to the neonatal ward for follow up examinations. During the study, the infant's weight, length, head circumference, glucose blood levels, blood count, blood fat, blood chemistry, blood amino acids, insulin antibodies, and serum levels were recorder, as well as food consumption, vomiting, regurgitation and stools frequency were measured and assessed. Infants were to be withdrawn from the study if any serious adverse event or any deterioration in the infant clinical condition had occurred. They were followed up on possible side effects and efficacy measures until 6 months of age. […] A multicenter, double blind, randomized study for studying the effect of the insulin enriched infant formula on the growth of low weight infants was planned to take place in Israel in 2005 (headed by Prof Sirota, Schneider Hospital). Due to low recruitment rate (only 8 premature infants), the study was terminated.

preterm infants [3] = assay: Randomized placebo controlled study: gastrointestinal maturation (days to complete enteral feeding); assay type: in vivo, human; conditions: all infants; control 7.9; P-value=0.2085
Method: A Multi-center, two arms, randomized, double-blinded placebo controlled study was conducted to evaluate the effect of insulin-enriched infant formula on preterm infants. In this study, the population of infants included also babies having extremely low birth weight (inclusion criteria included babies weighing over 750 grams). The insulin was given at a concentration range which is mimicking colostrums concentration (at 400 μU/ml. The study primary goal was to determine whether insulin supplement to the basic preterm oral formula enhances gastrointestinal maturation. The gastrointestinal maturation was evaluated by the ability of the premature infants to achieve complete enteral feeds (150-160 ml/kg/day). The infants were hospitalized in the neonatal hospital ward in the same manner as preterm infants whose parents elected not to participate in the study. The infants were randomly assigned to one of two treatment groups: the study product-InsuMealTM as a test group and Placebo supplement as a control group. The parents, the medical team treating the infants and the study monitor were blinded to the treatment arm. From study day 1, the infants in the test group received the InsuMealTM additive mixed with the ready to feed (RTF) preterm […] formula and the control group received a placebo supplement mixed with the same RTF preterm […] formula. […]

preterm infants [4] = assay: Randomized placebo controlled study: number of hospitalization days to discharge; assay type: in vivo, human
Method: A Multi-center, two arms, randomized, double-blinded placebo controlled study was conducted to evaluate the effect of insulin-enriched infant formula on preterm infants. In this study, the population of infants included also babies having extremely low birth weight (inclusion criteria included babies weighing over 750 grams). The insulin was given at a concentration range which is mimicking colostrums concentration (at 400 μU/ml. The study primary goal was to determine whether insulin supplement to the basic preterm oral formula enhances gastrointestinal maturation. The gastrointestinal maturation was evaluated by the ability of the premature infants to achieve complete enteral feeds (150-160 ml/kg/day). The infants were hospitalized in the neonatal hospital ward in the same manner as preterm infants whose parents elected not to participate in the study. The infants were randomly assigned to one of two treatment groups: the study product-InsuMealTM as a test group and Placebo supplement as a control group. […] From study day 1, the infants in the test group received the InsuMealTM additive mixed with the ready to feed (RTF) preterm […] formula and the control group received a placebo supplement mixed with the same RTF preterm […] formula. Infant maturation and growth was further assessed by the number of hospitalization days required until the preterm infant could be discharged.

preterm infants [5] = conditions: oral, 4 to 28 days of age, 4 U/kg/day; cited from earlier work
newborn miniature pigs = conditions: oral administration of 85 mU/ml; cited from earlier work

insulin: polypeptide hormone; human insulin administered orally to infants, within infant formula
Effect on head circumference relative to the expected growth (low birth weight infants [1]): 17.6% | Effect on length relative to the expected growth (low birth weight infants [1]): 8.1% | Effect on weight relative to the expected growth (low birth weight infants [1]): 18.1% | Adverse events (low birth weight infants [2]; follow up to 6 months): No deleterious effects; also recorded: no adverse events were observed | Anti-insulin antibodies (low birth weight infants [2]; human, in vivo): did not stimulate the production of anti-insulin antibodies | Hypoglycemia (low birth weight infants [2]; human, in vivo): did not cause hypoglycemia | Number of days to achieve complete enteral feeding (>=150 ml/Kg/day), Mean (preterm infants [3]): 6.4 days | Number of days to discharge, Mean (preterm infants [4]; all infants, control 33.6, P-value=0.2192): 28.8 days | Number of days to discharge, Mean (preterm infants [4]; infant birth weight < 1300 gr, control 47.0, P value=0.0447): 35.8 days | Hypoglycaemia or other adverse effects (preterm infants [5]): without inducing hypoglycaemia or other adverse effects | Lactase activity (preterm infants [5]): increased lactase activity | Intestine ileal mass and lactase activity (newborn miniature pigs): increased
